Laboratory results reported in US11524966B1 (Valo Early Discovery, Inc., priority 2017, dated 2022).

biological target: T1, USP25 (USP25-His6, Boston Biochem E-546) (Homo sapiens, UniProt Q9UHP3); assay: Ubiquitin-Rhodamine 110 Assay for USP25 Activity, Example A-2; format: biochemical; details: Ubiquitin-Rhodamine 110 assay, Example A-2; read-out: USP25 A-2 IC50 range
T1 construct: His6; purchased Boston Biochem E-546
T1 sequence (Q9UHP3 1-1055): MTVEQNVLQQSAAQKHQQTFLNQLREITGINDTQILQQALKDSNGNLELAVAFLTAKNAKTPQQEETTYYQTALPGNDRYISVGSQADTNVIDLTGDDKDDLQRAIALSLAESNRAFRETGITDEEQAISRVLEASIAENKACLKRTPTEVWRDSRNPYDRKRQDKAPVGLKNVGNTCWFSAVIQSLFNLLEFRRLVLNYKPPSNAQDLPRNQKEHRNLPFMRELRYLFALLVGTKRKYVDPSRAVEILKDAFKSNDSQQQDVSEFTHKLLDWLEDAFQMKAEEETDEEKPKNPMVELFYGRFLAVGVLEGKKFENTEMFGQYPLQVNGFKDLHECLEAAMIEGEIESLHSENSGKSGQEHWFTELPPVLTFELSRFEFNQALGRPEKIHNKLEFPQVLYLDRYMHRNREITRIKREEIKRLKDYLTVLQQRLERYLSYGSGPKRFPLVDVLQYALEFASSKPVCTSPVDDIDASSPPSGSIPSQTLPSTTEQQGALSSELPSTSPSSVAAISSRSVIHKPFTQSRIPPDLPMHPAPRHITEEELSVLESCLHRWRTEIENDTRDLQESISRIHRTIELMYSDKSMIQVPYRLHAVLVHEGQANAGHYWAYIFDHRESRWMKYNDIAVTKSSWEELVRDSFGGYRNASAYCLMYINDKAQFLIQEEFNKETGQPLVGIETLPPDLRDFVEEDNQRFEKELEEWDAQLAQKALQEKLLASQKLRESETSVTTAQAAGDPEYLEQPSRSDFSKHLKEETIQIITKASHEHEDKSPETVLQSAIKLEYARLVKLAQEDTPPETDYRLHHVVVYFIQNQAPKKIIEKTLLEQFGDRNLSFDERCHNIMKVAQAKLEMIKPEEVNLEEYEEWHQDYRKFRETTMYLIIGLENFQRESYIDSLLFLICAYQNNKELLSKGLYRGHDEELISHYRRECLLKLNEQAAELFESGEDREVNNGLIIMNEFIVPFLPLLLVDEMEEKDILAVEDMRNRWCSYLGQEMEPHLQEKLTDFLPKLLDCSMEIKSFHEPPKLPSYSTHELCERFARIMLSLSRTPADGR
Method in brief: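 Steps: compound dilutions (top 25 μM, 3-fold, 10 points) were preincubated 30 min with 75 pM USP25-His6; 25 nM Ub-Rh110 substrate was added under initial-velocity conditions; after 45 min at room temperature, 10 mM citric acid stopped the reaction before fluorescence reading.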

First: CO[C@H]1CN(c2ccc3c(c2)OC[C@H](NC(=O)c2sc4nc(C)ccc4c2N)C3)[C@@H](C)[C@@H]1N [Example 333, 3-amino-N-[(3R)-7-[(2S,3S,4S)-3-amino-4-methoxy-2-methylpyrrolidin-1-yl]-3,4-dihydro-2H-1-benzopyran-3-yl]-6-methylthieno[2,3-b]pyridine-2-carboxamide]
Second: CO[C@@H]1CN(c2ccc3c(c2)OC[C@H](NC(=O)c2sc4nc(C)ccc4c2N)C3)[C@H](C)[C@H]1N [Example 335, 3-amino-N-[(3R)-7-[(2R,3R,4R)-3-amino-4-methoxy-2-methylpyrrolidin-1-yl]-3,4-dihydro-2H-1-benzopyran-3-yl]-6-methylthieno[2,3-b]pyridine-2-carboxamide]
The IC50 of the first is lower: 50 to 200 nM for the first, 200 to 2000 nM for the second. The first is the more potent here.

First: CO[C@H]1[C@H](N)CN(c2ccc3c(c2)OC[C@H](NC(=O)c2sc4nc(C)ccc4c2N)C3)[C@H]1C [Example 334, 3-amino-N-[(3R)-7-[(2S,3S,4R)-4-amino-3-methoxy-2-methylpyrrolidin-1-yl]-3,4-dihydro-2H-1-benzopyran-3-yl]-6-methylthieno[2,3-b]pyridine-2-carboxamide]
Second: CO[C@H]1[C@@H](C)N(c2ccc3c(c2)OC[C@H](NC(=O)c2sc4nc(C)ccc4c2N)C3)C[C@@H]1N [Example 336, 3-amino-N-[(3R)-7-[(2R,3R,4S)-4-amino-3-methoxy-2-methylpyrrolidin-1-yl]-3,4-dihydro-2H-1-benzopyran-3-yl]-6-methylthieno[2,3-b]pyridine-2-carboxamide]
The IC50 of the first is lower: 1 to 50 nM for the first, 200 to 2000 nM for the second. The first is the more potent here.

Cc1ccc2c(N)c(C(=O)N[C@H]3COc4cc(N5CC6(C5)OCC[C@H]6N)ccc4C3)sc2n1 [Example 337, 3-amino-N-[(3R)-7-[(8R)-8-amino-5-oxa-2-azaspiro[3.4]octan-2-yl]-3,4-dihydro-2H-1-benzopyran-3-yl]-6-methylthieno[2,3-b]pyridine-2-carboxamide] and Cc1ccc2c(N)c(C(=O)N[C@H]3COc4cc(N5CC6(C5)OCC[C@@H]6N)ccc4C3)sc2n1 [Example 338, 3-amino-N-[(3R)-7-[(8S)-8-amino-5-oxa-2-azaspiro[3.4]octan-2-yl]-3,4-dihydro-2H-1-benzopyran-3-yl]-6-methylthieno[2,3-b]pyridine-2-carboxamide] fall in the same range of IC50: 200 to 2000 nM for the first, 200 to 2000 nM for the second.

Cc1ccc2c(N)c(C(=O)N[C@H]3COc4cc(N5C[C@@H](N)[C@@]6(CCO6)C5)ccc4C3)sc2n1 [Example 339, 3-amino-N-[(3R)-7-[(4R,8R)-8-amino-1-oxa-6-azaspiro[3.4]octan-6-yl]-3,4-dihydro-2H-1-benzopyran-3-yl]-6-methylthieno[2,3-b]pyridine-2-carboxamide] and Cc1ccc2c(N)c(C(=O)N[C@H]3COc4cc(N5C[C@H](N)[C@]6(CCO6)C5)ccc4C3)sc2n1 [Example 340, 3-amino-N-[(3R)-7-[(4S,8S)-8-amino-1-oxa-6-azaspiro[3.4]octan-6-yl]-3,4-dihydro-2H-1-benzopyran-3-yl]-6-methylthieno[2,3-b]pyridine-2-carboxamide] fall in the same range of IC50: 200 to 2000 nM for the first, 200 to 2000 nM for the second.

COC[C@@]1(C)CN(c2ccc3c(n2)CC[C@H](NC(=O)c2sc4nc(C)ccc4c2N)C3)C[C@@H]1N [Example 341, 3-amino-N-[(6S)-2-[(3S,4R)-4-amino-3-(methoxymethyl)-3-methylpyrrolidin-1-yl]-5,6,7,8-tetrahydroquinolin-6-yl]-6-methylthieno[2,3-b]pyridine-2-carboxamide] and COC[C@]1(C)CN(c2ccc3c(n2)CC[C@H](NC(=O)c2sc4nc(C)ccc4c2N)C3)C[C@@H]1N [Example 342, 3-amino-N-[(6S)-2-[(3R,4R)-4-amino-3-(methoxymethyl)-3-methylpyrrolidin-1-yl]-5,6,7,8-tetrahydroquinolin-6-yl]-6-methylthieno[2,3-b]pyridine-2-carboxamide] fall in the same range of IC50: 200 to 2000 nM for the first, 200 to 2000 nM for the second.

COC[C@]1(C)CN(c2ccc3c(n2)CC[C@H](NC(=O)c2sc4nc(C)ccc4c2N)C3)C[C@H]1N [Example 344, 3-amino-N-[(6S)-2-[(3R,4S)-4-amino-3-(methoxymethyl)-3-methylpyrrolidin-1-yl]-5,6,7,8-tetrahydroquinolin-6-yl]-6-methylthieno[2,3-b]pyridine-2-carboxamide] was tested, and the IC50 was 200 to 2000 nM.
